Measured values as given in PMC8980233, “Differentiating the Neuropharmacological Properties of Nicotinic Acetylcholine Receptor-Activating Alkaloids” (Frontiers in Pharmacology, 2022).

Assays:
[1] = system: norepinephrine release from hippocampal synaptosomes; experiment: In vitro [3H]norepinephrine release from crude hippocampal synaptosomes; format: biochemical, rat
Protocol: In vitro neurotransmitter assays using crude synaptosome preparations were conducted by Gifford Biosciences Limited (Birmingham, UK) based on the previously described protocols ([Clarke and Reuben, 1996]; [Gifford et al., 2000]). In brief, male Sprague Dawley rats (200–225 g) were terminated by cervical dislocation followed by decapitation. The striatums or hippocampi were dissected and homogenized in ice-cold 0.32 M sucrose using a Dounce homogenizer. The homogenates were centrifuged at 100 x g for 5 min to pellet cell debris. The supernatants were collected and centrifuged at 17,000 x g for 10 min at 4°C to pellet crude synaptosomes. The pellets were resuspended in 5 ml Krebs buffer, pH 7.4 (in mM (pH 7.4): 120 NaCl, 3.3 KCl, 1.2 MgSO4, 1.3 CaCl2, 1.2 K2HPO4, 25 HEPES, 11 glucose, 0.01 ascorbic acid, 0.025 pargyline, and 0.1% BSA containing 2 μCi/ml [^3H]norepinephrine for hippocampal synaptosomes or 1 μCi/ml [^3H]dopamine for striatal synaptosomes and incubated for 15 min at 35°C with gentle shaking.
The [^3H]norepinephrine- or [^3H]dopamine-treated crude synaptosomes were loaded onto closed filter chambers containing Whatman® Grade GF/C Glass Microfiber filters (Sigma-Aldrich, Merck KGaA, Darmstadt, Germany) and placed in a superfusion system. Preoxygenated Krebs buffer was perfused through the chambers at a rate of 1 ml/min at 37 °C using an 8-channel peristaltic pump. To ensure an even flow over the synaptosomal bed, trapped air bubbles were removed from the filters prior to collection of the fractions. After a superfusion period of 40 min, three basal fractions (1.5 ml/fraction) were collected first, followed by three fractions (1.5 ml/fraction) containing the test compound. Two additional fractions were collected in the presence of 30 mM KCl to depolarize the synaptosomes. A 0.4-ml aliquot of each fraction was then transferred to a counting plate, and a scintillation cocktail was added to measure the radioactivity using a Wallac® TriLux 1450 MicroBeta counter (PerkinElmer Life Sciences, Zaventem, Belgium). Once all fractions were collected, the filters holding the crude synaptosome samples were removed and dried overnight at room temperature. On the following day, the scintillation cocktail was added and the filters were counted to determine residual radioactivity.
Compound-evoked release of neurotransmitters was calculated by subtracting the counts per minute (CPM) in the two basal fractions collected immediately prior to compound addition from those in the two fractions collected immediately following compound addition. The compound-evoked release was then expressed as a percentage of the basal release from that chamber. Potassium-evoked release was calculated by subtracting the CPM in the fraction immediately prior to KCl addition from the CPM in the […] immediately following potassium addition. Stimulated release was calculated as the percentage of basal release for that chamber. The increase in stimulated release above the baseline (no compound) release for that experimental run was determined, and the latter values were plotted on the graphs. Dose–response curves were determined using non-linear curve fitting in Prism (GraphPad Software, Inc, San Diego, CA, United States). All experiments were repeated at least three times.

α3β4 nAChR = α3β4 nAChR (Homo sapiens, UniProt P30926+P32297); experiment: Radioligand displacement binding assay
Protocol: All binding and functional assays for molecular target characterization were conducted by Eurofins Cerep SA (Celle-Lévescault, France) and Eurofins Panlabs Discovery Services Taiwan, Ltd. (New Taipei City, Taiwan) using their standard in vitro binding and functional assays (Supplementary Material S2). […] Negative values were considered to be an artifact arising from, for example, compounds interfering with the assay readout.
The radioligand displacement binding assays employed the gold standard filtration method using membrane preparations from stable cell lines (HEK-293 or CHO cells) expressing human or rodent target proteins to determine the interaction of the compounds with specific receptors, channels, and transporters. For this purpose, the competitive binding of test compounds against a [^125I]- [^3H]-, or [^35S]-labelled agonist and/or antagonist was determined. The specific list of radiolabeled ligands and experimental conditions are summarized in Supplementary Material S2.

α7 nAChR = α7 nAChR (Homo sapiens, UniProt P36544); experiment: Radioligand displacement binding assay
α7 nAChR, sequence (P36544 23-502): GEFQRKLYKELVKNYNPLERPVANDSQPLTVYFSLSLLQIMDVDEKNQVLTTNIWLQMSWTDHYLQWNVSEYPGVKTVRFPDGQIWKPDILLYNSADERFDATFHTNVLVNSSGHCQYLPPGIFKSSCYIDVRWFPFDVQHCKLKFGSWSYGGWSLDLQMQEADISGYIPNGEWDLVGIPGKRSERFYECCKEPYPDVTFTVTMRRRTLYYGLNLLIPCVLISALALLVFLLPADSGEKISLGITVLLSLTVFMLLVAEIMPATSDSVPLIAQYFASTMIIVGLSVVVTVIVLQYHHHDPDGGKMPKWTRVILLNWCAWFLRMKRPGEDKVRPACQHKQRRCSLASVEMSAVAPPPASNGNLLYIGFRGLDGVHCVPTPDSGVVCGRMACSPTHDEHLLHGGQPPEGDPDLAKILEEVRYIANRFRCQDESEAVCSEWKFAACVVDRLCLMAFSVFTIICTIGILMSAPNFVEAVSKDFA
Protocol: Assay Source Ligand Conc. Kd Non Specific Incubation Detection Bibl.
N neuronal α7 (h) SH-SY5Y cells [125I]α-bungarotoxin 0.05 nM 0.34 nM α-bungarotoxin 120 min Scintillation 347
(antagonist radioligand) (human (1 µM) 37°C counting

α3β4 nAChR, sequence (P32297 32-505): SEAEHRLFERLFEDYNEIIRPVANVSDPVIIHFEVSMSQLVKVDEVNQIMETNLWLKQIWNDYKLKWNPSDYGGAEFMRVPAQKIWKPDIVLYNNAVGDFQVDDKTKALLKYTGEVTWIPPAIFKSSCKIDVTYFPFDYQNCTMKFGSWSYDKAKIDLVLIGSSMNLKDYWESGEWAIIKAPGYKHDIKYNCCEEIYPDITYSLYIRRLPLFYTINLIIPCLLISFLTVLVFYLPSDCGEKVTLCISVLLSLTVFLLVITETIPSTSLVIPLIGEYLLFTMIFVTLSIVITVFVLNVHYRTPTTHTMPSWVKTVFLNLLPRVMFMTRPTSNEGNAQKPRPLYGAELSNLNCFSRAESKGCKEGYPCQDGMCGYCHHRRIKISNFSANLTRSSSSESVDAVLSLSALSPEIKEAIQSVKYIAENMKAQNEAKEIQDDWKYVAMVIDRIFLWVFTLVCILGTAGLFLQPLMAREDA
α3β4 nAChR, sequence (P30926 22-498): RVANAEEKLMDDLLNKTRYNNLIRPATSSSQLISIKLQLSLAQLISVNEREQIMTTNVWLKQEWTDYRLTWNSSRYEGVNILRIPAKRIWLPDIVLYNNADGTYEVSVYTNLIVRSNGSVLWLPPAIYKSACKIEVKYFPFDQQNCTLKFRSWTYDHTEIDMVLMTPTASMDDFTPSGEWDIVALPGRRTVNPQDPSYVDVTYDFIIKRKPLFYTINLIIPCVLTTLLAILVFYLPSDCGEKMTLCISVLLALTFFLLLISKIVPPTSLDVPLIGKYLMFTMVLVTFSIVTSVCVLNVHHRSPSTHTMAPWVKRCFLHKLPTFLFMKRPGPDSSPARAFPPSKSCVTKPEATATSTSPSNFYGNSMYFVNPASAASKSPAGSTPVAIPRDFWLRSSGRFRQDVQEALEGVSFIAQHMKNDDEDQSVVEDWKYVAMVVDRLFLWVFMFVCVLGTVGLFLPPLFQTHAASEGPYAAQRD

Q: `C1=CCC(c2cccnc2)NC1` (racemic) [Anatabine, (±)-Anatabine] was tested. Which “increase in norepinephrine release” value ([1]; at the higher doses) did it give?
A: ~20%

Q: What about the IC50 (α3β4 nAChR) of the same molecule?
A: 960 ± 200 nM

Q: Which “binding for α3β4 nAChR” value (α3β4 nAChR) does the source give for `CN1C(=O)CC[C@H]1c1cccnc1` [Cotinine, (-)-cotinine] here?
A: undetectable

Q: And the “binding for α7 nAChR” value (α7 nAChR)?
A: undetectable

Q: How did the EC50 ([1]; hippocampal synaptosomes) turn out when `CN1CCC[C@H]1c1cccnc1` [Nicotine, (-)-Nicotine] was run?
A: 4220 nM
